# How the values were obtained:
# [1] = tested on: S. mutans; assay: Inhibitory effects under sucrose, fructose or maltose conditions, 96-well plate; type: cell-based, Streptococcus mutans; details: for non-growth rate: 40 g/L added
# Method: Strains used in the present experiment are Streptococcus mutans ATCC 25175, S. oralis, and S. sanguinis. Representatively, Streptococcus mutans ATCC 25175 was pre-cultured in a brain-heart infusion (BHI) medium for 12 hours, and was washed twice with a 2 mM potassium phosphate buffer, and then was subjected to main culture in a minimal medium prepared with reference to the previously reported document (Fujiwara et al (1978) Arch Oral Biol. 23, 601-602) at 37° C. and 180 rpm. The composition of the minimal medium includes, in 5 mL of a 50 mM Tris-HCl buffer (pH 7.4), 10 mg of L-glutamic acid, 1 mg of cysteine hydrochloride, 4.5 mg of L-leucine, 5 mg of ammonium chloride, 17.5 mg of potassium hydrogen phosphate, 7.5 mg of potassium dihydrogen phosphate, 21 mg of a carbonate, 6 mg of magnesium sulfate heptahydrate, 0.1 mg of manganese chloride tetrahydrate, 3 mg of sodium pyruvate, 5 μg of riboflavin, 2.5 μg of thiamine hydrochloride, 0.5 μg of biotin, 5 μg of nicotinic acid, 0.5 μg of p-aminobenzoic acid, 2.5 μg of calcium pantothenate, and 5 μg of pyridoxine hydrochloride. Under conditions of fermentable sugars other than glucose, for example, sucrose, fructose, and maltose, inhibitory effects of AHG and xylitol on S. mutans were investigated. An experiment was carried out in a 96-well plate containing 0 g/L to 10 g/L of AHG or 0 g/L to 40 g/L of xylitol in a specified minimal medium containing 10 g/L of each of sucrose, fructose, and maltose.
# [2] = tested on: S. mutans; details: background statement; cited from earlier work
# [3] = tested on: S. sanguinis; assay: Growth inhibition under mixed carbon source condition (10 g/L glucose), 96-well plate; type: cell-based; details: 60 g/L added to 10 g/L glucose
# Method: (§1) Strains used in the present experiment are Streptococcus mutans ATCC 25175, S. oralis, and S. sanguinis. Representatively, Streptococcus mutans ATCC 25175 was pre-cultured in a brain-heart infusion (BHI) medium for 12 hours, and was washed twice with a 2 mM potassium phosphate buffer, and then was subjected to main culture in a minimal medium prepared with reference to the previously reported document (Fujiwara et al (1978) Arch Oral Biol. 23, 601-602) at 37° C. and 180 rpm. […] Small amounts of Streptococcus mutans, S. oralis, and S. sanguinis were cultured, using the method of Example 5, in 200 μl of a liquid minimal medium containing 10 g/L of glucose and 3,6-anhydro-L-galactose or xylitol according to concentration in a 96-well plate, and growth inhibitory effects thereof were observed by measuring absorbance at a wavelength of 600 nm according to time. […]
# [4] = tested on: Streptococcus mutans; assay: as above; type: cell-based, Streptococcus mutans ATCC 25175
# Method: as §1
# [5] = tested on: Streptococcus mutans; assay: Growth and acid production under mixed carbon source condition, 5 mL culture, absorbance and HPLC; type: cell-based, Streptococcus mutans ATCC 25175
# Method: Strains used in the present experiment are Streptococcus mutans ATCC 25175, S. oralis, and S. sanguinis. Representatively, Streptococcus mutans ATCC 25175 was pre-cultured in a brain-heart infusion (BHI) medium for 12 hours, and was washed twice with a 2 mM potassium phosphate buffer, and then was subjected to main culture in a minimal medium prepared with reference to the previously reported document (Fujiwara et al (1978) Arch Oral Biol. 23, 601-602) at 37° C. and 180 rpm. The composition of the minimal medium includes, in 5 mL of a 50 mM Tris-HCl buffer (pH 7.4), 10 mg of L-glutamic acid, 1 mg of cysteine hydrochloride, 4.5 mg of L-leucine, 5 mg of ammonium chloride, 17.5 mg of potassium hydrogen phosphate, 7.5 mg of potassium dihydrogen phosphate, 21 mg of a carbonate, 6 mg of magnesium sulfate heptahydrate, 0.1 mg of manganese chloride tetrahydrate, 3 mg of sodium pyruvate, 5 μg of riboflavin, 2.5 μg of thiamine hydrochloride, 0.5 μg of biotin, 5 μg of nicotinic acid, 0.5 μg of p-aminobenzoic acid, 2.5 μg of calcium pantothenate, and 5 μg of pyridoxine hydrochloride. To verify an effect of 3,6-anhydro-L-galactose or xylitol on the growth of Streptococcus mutans and acid production, Streptococcus mutans bacteria were cultured, using the method of Example 5, in 5 mL of a liquid minimal medium containing 10 g/L of glucose and 0 g/L, 5 g/L or 10 g/L of 3,6-anhydro-L-galactose or 20 g/L or 40 g/L of xylitol for 35 h, and cell growth was measured using absorbance every 5 hours and concentrations of an extracellular substrate and acid production were measured by HPLC. A glucose only-added condition was set as a negative control, and a glucose- and xylitol-added condition was set as a positive control. A column used for analysis was Aminex HPX-87H, and 0.01 N of sulfuric acid as a mobile phase was flowed at a rate of 0.5 mL/min and 65° C.
# [6] = tested on: Streptococcus mutans; assay: Growth of Streptococcus mutans in liquid minimal medium, single carbon source (absorbance 600 nm); type: cell-based, Streptococcus mutans ATCC 25175; details: 10 g/L single carbon source, 20 h after entering a stationary phase
# Method: Strains used in the present experiment are Streptococcus mutans ATCC 25175, S. oralis, and S. sanguinis. Representatively, Streptococcus mutans ATCC 25175 was pre-cultured in a brain-heart infusion (BHI) medium for 12 hours, and was washed twice with a 2 mM potassium phosphate buffer, and then was subjected to main culture in a minimal medium prepared with reference to the previously reported document (Fujiwara et al (1978) Arch Oral Biol. 23, 601-602) at 37° C. and 180 rpm. The composition of the minimal medium includes, in 5 mL of a 50 mM Tris-HCl buffer (pH 7.4), 10 mg of L-glutamic acid, 1 mg of cysteine hydrochloride, 4.5 mg of L-leucine, 5 mg of ammonium chloride, 17.5 mg of potassium hydrogen phosphate, 7.5 mg of potassium dihydrogen phosphate, 21 mg of a carbonate, 6 mg of magnesium sulfate heptahydrate, 0.1 mg of manganese chloride tetrahydrate, 3 mg of sodium pyruvate, 5 μg of riboflavin, 2.5 μg of thiamine hydrochloride, 0.5 μg of biotin, 5 μg of nicotinic acid, 0.5 μg of p-aminobenzoic acid, 2.5 μg of calcium pantothenate, and 5 μg of pyridoxine hydrochloride. […] The bacteria were main-cultured using the method of Example 5 for 35 h, and a degree of the cell growth was measured by measuring the absorbance of a culture at a wavelength of 600 nm every 5 h.
# [7] = tested on: Streptococcus mutans; assay: Colony formation of Streptococcus mutans on solid minimal medium, single carbon source; type: cell-based, Streptococcus mutans ATCC 25175; details: 10 g/L as single carbon source, 30 h
# Method: Strains used in the present experiment are Streptococcus mutans ATCC 25175, S. oralis, and S. sanguinis. Representatively, Streptococcus mutans ATCC 25175 was pre-cultured in a brain-heart infusion (BHI) medium for 12 hours, and was washed twice with a 2 mM potassium phosphate buffer, and then was subjected to main culture in a minimal medium prepared with reference to the previously reported document (Fujiwara et al (1978) Arch Oral Biol. 23, 601-602) at 37° C. and 180 rpm. The composition of the minimal medium includes, in 5 mL of a 50 mM Tris-HCl buffer (pH 7.4), 10 mg of L-glutamic acid, 1 mg of cysteine hydrochloride, 4.5 mg of L-leucine, 5 mg of ammonium chloride, 17.5 mg of potassium hydrogen phosphate, 7.5 mg of potassium dihydrogen phosphate, 21 mg of a carbonate, 6 mg of magnesium sulfate heptahydrate, 0.1 mg of manganese chloride tetrahydrate, 3 mg of sodium pyruvate, 5 μg of riboflavin, 2.5 μg of thiamine hydrochloride, 0.5 μg of biotin, 5 μg of nicotinic acid, 0.5 μg of p-aminobenzoic acid, 2.5 μg of calcium pantothenate, and 5 μg of pyridoxine hydrochloride. To verify an effect of inhibiting the growth of Streptococcus mutans under a single carbon source condition, Streptococcus mutans was cultured in a solid minimal medium and a liquid minimal medium that contained 10 g/L of each of 3,6-anhydro-L-galactose, glucose, and xylitol. […]
structure (smiles),measurement,setting,value
OC[C@@H](O)[C@H](O)[C@@H](O)CO [xylitol],non-growth rate,[1]; 10 g/L fructose,0.085 h⁻¹
same,non-growth rate,[1]; 10 g/L maltose,0.045 h⁻¹
same,"cell growth of S. mutans, concentration dependence","[1]; 10 g/L sucrose, 0-40 g/L added",decreased as the concentration of xylitol was increased
same,non-growth rate,[1]; 10 g/L sucrose,0.061 h⁻¹
same,cell growth of S. mutans,"[1]; 10 g/L sucrose, 40 g/L added (maximum concentration)",did not completely inhibit
same,concentration at which the growth of S. mutans can be inhibited,[2],≥ 25 g/L
same,inhibitory effect on S. sanguinis,[3],strong inhibitory effect
same,"growth of Streptococcus mutans, concentration dependence",[4]; 0-60 g/L added to 10 g/L glucose,inhibited as the treated concentration of xylitol was increased
same,growth of Streptococcus mutans,[4]; 40 g/L added to 10 g/L glucose,considerable cell growth was observed
same,concentration of produced acetic acid,[5]; 20 g/L in 10 g/L glucose,0.55 g/L
same,concentration of produced lactic acid,[5]; 20 g/L in 10 g/L glucose,3.67 g/L
same,final dry cell weight,[5]; 20 g/L in 10 g/L glucose,1.42 g/L
same,glucose consumed,[5]; 20 g/L in 10 g/L glucose,5.28 g/L
same,non-growth rate,[5]; 20 g/L in 10 g/L glucose,0.087 h⁻¹
same,concentration of consumed glucose,[5]; 40 g/L in 10 g/L glucose,5.42 g/L
same,concentration of produced acetic acid,[5]; 40 g/L in 10 g/L glucose,0.55 g/L
same,concentration of produced lactic acid,[5]; 40 g/L in 10 g/L glucose,3.67 g/L
same,inhibition of growth of Streptococcus mutans and acid production,[5]; 40 g/L in 10 g/L glucose,did not completely inhibit
same,lag phase,"[5]; 40 g/L in 10 g/L glucose, compared with 20 g/L",longer
same,use as a carbon source / fermentation by Streptococcus mutans,[5]; in 10 g/L glucose,non-fermentation properties
same,concentration of the added sugar during culture,"[5]; in 10 g/L glucose, 35 h culture",constantly maintained
same,dry cell weight (DCW) of Streptococcus mutans,[6],1.46 g/L
same,formation of colonies compared to the glucose condition,[7],inhibited
